This note sets out measurements from article PMC7054460 (2020).

Molecules are shown by their SMILES.

The subject of assay [1] is Y2 (DNA, duplex, free-base (2H) porphyrin-dU (porphyrin via rigid acetylene linker) at 10 of strand 1 and at 4 of strand 2) CGCATTATATGC/GCATATAATGCG
Description: CD titration (porphyrin exciton coupling), Scatchard fit. Conditions: Na+ 100 mM NaCl + 100 mM Na2HPO4 (assumed from Fig. 2 legend); 4 μM DNA; EtBr 40-800 μM; apparent; local site between adjacent porphyrins; buffer not given; per base.

In assay [2] the test system is Y1 (DNA, duplex, free-base (2H) porphyrin-dU (porphyrin via rigid acetylene linker) at 5 of strand 1 and at 4 of strand 2) CGCATTATATGC/GCATATAATGCG
The description is as above. The settings on record: Na+ 100 mM NaCl + 100 mM Na2HPO4 (assumed from Fig. 2 legend); 4 μM DNA; EtBr 40-800 μM; apparent; global intercalation; buffer not given; per base.

As to `CC[n+]1c(-c2ccccc2)c2cc(N)ccc2c2ccc(N)cc21`, the results for the “Ka (association binding constant)” value in assay [1] and in assay [2] were 3.54 ± 0.4 × 10^5 M^-1 and 1.43 ± 0.2 × 10^5 M^-1, respectively.
